“Also recorded” adds a separate entry of the source.
Columns and labels:
[1] = test system: 15-PGDH-luciferase fusion reporter in V9m, LS174T and V503 cells; assay: 15-PGDH-luciferase fusion gene reporter induction in colon cancer cell lines; assay type: cell-based
15-PGDH mRNA = 15-PGDH mRNA levels in colon cancer cell lines by real-time PCR; assay type: cell-based
Excerpt: In these studies parental cell lines (not containing the 15-PGDH-luciferase reporter) are employed.

A549 cells [2] = assay: PGE2 levels in medium of IL1-beta stimulated A549 cells; assay type: cell-based; settings: IL1-beta 23 hours, compound added for the last 5 hours
cell culture = assay: Toxicity in a cell culture assay (decrease of cell numbers); assay type: cell-based; settings: concentration needed to decrease cell numbers in a cell culture assay
Protocol: Time to inhibition refers to the time needed to inhibit the generation of NADH by 15-PGDH from the moment with drug is added into the reaction mix. Delta Tm refers to the shift in melting temperature of recombinant 15-PGDH in the presence of drug (with cofactor NADH also present). Concentration of Full Cell Line Reporter Induction refers to the concentration of drug that needs to be added to reporter cell line to achieve maximal induction of the 15-PGDH-luciferase gene fusion reporter cassette, as measured by luciferase assays. Hepatocyte stability refers to the half-life of compound in the presence of hepatocytes in culture. Toxicity refers to the concentration of compound needed to decrease cell numbers in a cell culture assay.

A549 cells [3] = assay: Cellular toxicity on A549 cells by CellTiter-Glo; assay type: cell-based; settings: 24 hours, concentrations of up to 10 μM
Protocol: FIGS. 38(A-C) show assays of cellular toxicity on A549 cells at 24 hours of 15-PGDH inhibitors as assayed by CellTiter-Glo measurement.

C57BL/6J mice [4] = assay: Bone marrow of C57BL/6J mice treated in vivo; design: species or system mouse; settings: IP 5 mg/kg or 20 mg/kg
Excerpt: Experimental conditions are noted on the figure.

[5] = test system: lethally irradiated CD45.1 mice; assay: Competitive bone marrow transplant, CD45.2 chimerism; assay type: in vivo, mouse
Protocol: On day 3 mice were sacrificed, marrow flushed and mixed at a 1:1 ratio with vehicle treated CD45.1 marrow. 2 million whole BM cells were injected into the tail vein of lethally irradiated CD45.1 mice and percent chimerism measured via flow cytometry at weeks 8, 12, 16.

C57BL/6J mice [6] = assay: Liver regeneration after partial hepatectomy, C57BL/6J mice; assay type: in vivo, mouse
FVB mice = assay: Liver regeneration after partial hepatectomy, FVB mice; assay type: in vivo, mouse
C57BL/6J female mice = assay: Survival following acetaminophen (Tylenol) overdose; assay type: in vivo, mouse;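 note: control animals received vehicle only, given on a once or twice daily schedule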
FVB male mice = assay: Dextran sodium sulfate (DSS) induced colitis; assay type: in vivo, mouse
lethally irradiated mice [7] = assay: Blood and bone marrow recovery after transplant with 500,000 donor marrow cells; assay type: in vivo, mouse
lethally irradiated mice [8] = assay: Homing of CFSE dye labeled bone marrow cells in lethally irradiated mice; assay type: in vivo, mouse; settings: 10 mg/kg IP
Protocol: Drugs are administered following radiation, following the transplant, and again at 8 hours after the transplant.

[9] = test system: bone marrow SKL cells and stromal cells; assay: Gene expression in bone marrow SKL and CD45(-) stromal cells of treated mice; assay type: in vivo, mouse
Protocol: 2 hours following the last dose bone marrow is harvested and sorted into SKL marked cells that are hematopoietic stem cell enriched and into CD45 (−) cells that are bone marrow stroma cells. RNA was extracted and gene expression determined relative to levels in mice injected with vehicle control.

NSG mice = assay: Homing of human umbilical cord blood buffy coat cells in NSG mice; assay type: in vivo, mouse
Protocol: FIG. 93 illustrates a schema of an experiment in which immune deficient NSG mice are lethally irradiated (IR) and 12 hours later receive a transplant with CFSE dye labeled buffy coat cells from human umbilical cord blood (UCB), and number of transplanted cells that home and survive in the bone marrow of the recipient mice are then determined by FACS at 16 hours post-transplant. In different arms of the experiment mice are treated with vehicle or with SW033291. Drugs are administered following radiation, following the transplant, and again at 8 hours after the transplant.

CCCC[S+]([O-])c1sc2nc(-c3cccs3)cc(-c3ccccc3)c2c1N (stereo not shown) [SW033291, 2-(butylsulfinyl)-4-phenyl-6-(thiophen-2-yl)thieno[2,3-b]pyridin-3-amine]
exposure needed for maximal reporter induction ([1]; 24 hours, three cell line backgrounds): 80 to 160 nM | luciferase activity of 15-PGDH luciferase fusion cells ([1]; V9m, LS174T, V503, various concentrations): increase luciferase activity | 15-PGDH mRNA levels (15-PGDH mRNA; V503 cells): slight increase in 15-PGDH mRNA | 15-PGDH mRNA levels (15-PGDH mRNA; treated colon cancer cell lines, real-time PCR): do not in general alter 15-PGDH mRNA levels | 15-PGDH activity in cells as reflected in PGE2 levels in medium (A549 cells [2]): clear inhibition of 15-PGDH activity in the cells | Toxicity (cell culture): >10 µM | effect on CellTitre-Glo levels (A549 cells [3]): No effect | percent of Sca1+/c-Kit+ cells in lineage negative (SKL) cells (C57BL/6J mice [4]): unchanged | percent blood chimerism of CD45.2 marked cells ([5]; donor 5 mg/kg IP daily for 3 doses, weeks 12 and 16): significantly increased | contribution to B and T cell populations ([5]; week 16): significant increase in contribution to B and T cell populations | mitosis per high powered field in liver (C57BL/6J mice [6]; 5 mg/kg IP daily, post-operative days 3 and 4): significantly increased hepatic mitosis; also recorded: significantly increased numbers of mitotic liver cells | serum ALT levels (C57BL/6J mice [6]; one mouse each, 5 mg/kg IP bid, post-operative days 1-7): lower | BrdU positive (S-phase) cells in liver (FVB mice; post-operative day 2): clear increase in numbers of BrdU positive cells | increase in median S-phase cells (FVB mice; post-operative day 2, P<0.05): greater than 2 fold | greater liver weight than control mice (FVB mice; post-operative day 7): approximately 25% | Number of mice surviving (C57BL/6J female mice; 5 mg/kg 1 dose/daily, first dose immediately after Tylenol, 16 hr, cohort of 6): 6 | Number of mice surviving (C57BL/6J female mice; 5 mg/kg 1 dose/daily, first dose immediately after Tylenol, 24 hrs, cohort of 6): 6 | Number of mice surviving (C57BL/6J female mice; 5 mg/kg 2 dose/daily, first dose immediately after Tylenol, 16 hr, cohort of 6): 6 | Number of mice surviving (C57BL/6J female mice; 5 mg/kg 2 dose/daily, first dose immediately after Tylenol, 24 hrs, cohort of 6): 6 | Number of mice surviving (C57BL/6J female mice; 5 mg/kg 2 dose/daily, first dose immediately after Tylenol, 48 hrs, cohort of 6): 3 | Number of mice surviving (C57BL/6J female mice; 5 mg/kg 2 dose/daily, first dose immediately after Tylenol, 64 hrs, cohort of 6): 3 | Number of mice surviving (C57BL/6J female mice; 5 mg/kg 2 dose/daily, first dose immediately after Tylenol, 72 hrs, cohort of 6): 3 | Number of mice surviving (C57BL/6J female mice; 5 mg/kg 2 dose/daily, first dose immediately after Tylenol, 88 hr, cohort of 6): 3 | Number of mice surviving (C57BL/6J female mice; 5 mg/kg 2 dose/daily, first dose immediately after Tylenol, 96 hr, cohort of 6): 3 | Number of mice surviving (C57BL/6J female mice; 5 mg/kg 2 dose/daily, first dose immediately after Tylenol, 112 hr, cohort of 6): 3 | Number of mice surviving (C57BL/6J female mice; 5 mg/kg 2 dose/daily, first dose immediately after Tylenol, 120 hr, cohort of 6): 3 | survival versus control mice (C57BL/6J female mice; 5 mg/kg IP begun immediately following acetaminophen, once or twice daily, through 120 hours): No difference | protection from acetaminophen lethality (C57BL/6J female mice; 5 mg/kg IP bid beginning 48 hours prior to acetaminophen, 9 doses): protects from the lethal hepatotoxicity of acetaminophen | Number of mice surviving (C57BL/6J female mice; 5 mg/kg bid from 3 hours prior to acetaminophen, 6 doses, 16 hr, cohort of 6): 6 | Number of mice surviving (C57BL/6J female mice; 5 mg/kg bid from 3 hours prior to acetaminophen, 6 doses, 24 hrs, cohort of 6): 5 | Number of mice surviving (C57BL/6J female mice; 5 mg/kg bid from 3 hours prior to acetaminophen, 6 doses, 48 hrs, cohort of 6): 3 | Number of mice surviving (C57BL/6J female mice; 5 mg/kg bid from 3 hours prior to acetaminophen, 6 doses, 64 hrs, cohort of 6): 3 | Number of mice surviving (C57BL/6J female mice; 5 mg/kg bid from 3 hours prior to acetaminophen, 6 doses, 72 hrs, cohort of 6): 3 | Number of mice surviving (C57BL/6J female mice; 5 mg/kg bid from 3 hours prior to acetaminophen, 6 doses, 88 hr, cohort of 6): 3 | Number of mice surviving (C57BL/6J female mice; 5 mg/kg bid from 3 hours prior to acetaminophen, 6 doses, 96 hr, cohort of 6): 3 | Number of mice surviving (C57BL/6J female mice; 5 mg/kg bid from 3 hours prior to acetaminophen, 6 doses, 112 hr, cohort of 6): 3 | Number of mice surviving (C57BL/6J female mice; 5 mg/kg bid from 3 hours prior to acetaminophen, 6 doses, 120 hr, cohort of 6): 3 | Number of mice surviving (C57BL/6J female mice; 5 mg/kg bid from 48 hours prior to acetaminophen, 9 doses, 16 hr, cohort of 12): 12 | Number of mice surviving (C57BL/6J female mice; 5 mg/kg bid from 48 hours prior to acetaminophen, 9 doses, 24 hrs, cohort of 12): 12 | Number of mice surviving (C57BL/6J female mice; 5 mg/kg bid from 48 hours prior to acetaminophen, 9 doses, 40 hrs, cohort of 12): 11 | Number of mice surviving (C57BL/6J female mice; 5 mg/kg bid from 48 hours prior to acetaminophen, 9 doses, 48 hrs, cohort of 12): 10 | Number of mice surviving (C57BL/6J female mice; 5 mg/kg bid from 48 hours prior to acetaminophen, 9 doses, 64 hrs, cohort of 12): 10 | Number of mice surviving (C57BL/6J female mice; 5 mg/kg bid from 48 hours prior to acetaminophen, 9 doses, 72 hrs, cohort of 12): 10 | Number of mice surviving (C57BL/6J female mice; 5 mg/kg bid from 48 hours prior to acetaminophen, 9 doses, 88 hr, cohort of 12): 10 | Number of mice surviving (C57BL/6J female mice; 5 mg/kg bid from 48 hours prior to acetaminophen, 9 doses, 96 hr, cohort of 12): 10 | Number of mice surviving (C57BL/6J female mice; 5 mg/kg bid from 48 hours prior to acetaminophen, 9 doses, 112 hr, cohort of 12): 10 | Number of mice surviving (C57BL/6J female mice; 5 mg/kg bid from 48 hours prior to acetaminophen, 9 doses, 120 hr, cohort of 12): 10 | change from baseline weight (FVB male mice; 22 days, P=0.001): greater weight at all time points | colon ulcer formation (FVB male mice; colonoscopy days 8, 11, 15): prevents two-thirds of ulcer formation | reduction of length of ulcerated mucosa versus control (FVB male mice; day 15, P=0.045): 61% | body weight and colon length (FVB male mice; day 22): greater body weight and greater colon lengths | MEICS scores (FVB male mice; days 8, 11 and 15): significantly less colitis activity | total platelet count (lethally irradiated mice [7]; day 5 after transplant): significantly higher total platelet count | total white count (lethally irradiated mice [7]; day 5 after transplant): significantly higher total white count | platelet count (lethally irradiated mice [7]; day 8 after transplant): 77,000 platelets | neutrophil count (lethally irradiated mice [7]; day 12 after transplant): 332 neutrophils | total white counts (lethally irradiated mice [7]; day 12 after transplant): significantly higher total white counts; also recorded: significantly greater total white counts | lymphocyte count (lethally irradiated mice [7]; day 18 after transplant): significantly higher | neutrophil count (lethally irradiated mice [7]; day 18 after transplant): 835 neutrophils | platelet counts (lethally irradiated mice [7]; day 18 after transplant): significantly higher platelet counts | total white count (lethally irradiated mice [7]; day 18 after transplant): significantly higher total white count | increase in numbers of homed cells in recipient bone marrow (lethally irradiated mice [8]; FIG. 88): 3 fold | increase in numbers of homed cells in recipient bone marrow (lethally irradiated mice [8]; FIG. 90): 2 fold | increase in numbers of homed donor cells in recipient bone marrow (lethally irradiated mice [8]; FIG. 140): approximately 2.5 fold | induction of CXCL12 [9]: greater than 4 fold | induction of SCF [9]: greater than 4 fold | increase in numbers of homed human cells in recipient bone marrow (NSG mice): ~2 fold
